Source: article PMC6270996, “Capsaicin: A Potent Inhibitor of Carbonic Anhydrase Isoenzymes” (Molecules, 2014)

Assays:
[1] = biological target: T1, human carbonic anhydrase II (hCA II) (Homo sapiens, UniProt P00918); assay: esterase assay (p-nitrophenyl acetate hydrolysis, […] nm), Lineweaver-Burk; format: biochemical
T1 construct: gene CA2; native enzyme purified from human erythrocytes

[2] = biological target: T2, human carbonic anhydrase I (hCA I) (Homo sapiens, UniProt P00915); assay: as above; format: biochemical
T2 construct: gene CA1; native enzyme purified from human erythrocytes
T2 sequence (P00915 2-261): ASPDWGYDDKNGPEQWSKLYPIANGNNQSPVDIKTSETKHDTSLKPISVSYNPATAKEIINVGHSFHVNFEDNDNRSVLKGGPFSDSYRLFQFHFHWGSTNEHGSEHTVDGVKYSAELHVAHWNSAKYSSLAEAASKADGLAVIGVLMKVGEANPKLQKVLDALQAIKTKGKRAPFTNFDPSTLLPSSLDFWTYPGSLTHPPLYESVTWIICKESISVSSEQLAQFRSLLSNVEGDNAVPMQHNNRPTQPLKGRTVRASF

Compound COc1cc(CNC(=O)CCCC/C=C/C(C)C)ccc1O [capsaicin, trans-8-methyl-N-vanillyl-6-nonenamide] has a Ki [1] of 208 ± 14.4 µM and a Ki [2] of 696 ± 59.4 µM.
